According to PubChem BioAssay (NCI):
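The compound was tested at five concentrations on cells cultured in 96-well plates, with a 48-hour exposure period. GI50 = concentration required for 50% inhibition of growth. TGI: concentration producing complete growth inhibition.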

Assays:
Assay in all cases: inhibition of tumour cell growth, NCI panel, 48 h
[1] = system: CAKI-1 renal
[2] = system: A498 renal
[3] = system: K-562 leukemia
[4] = system: SNB-19 CNS
[5] = system: HCC-2998 colon
[6] = system: 786-0 renal
[7] = system: SK-MEL-28 melanoma
[8] = system: SNB-75 CNS
[9] = system: SW-620 colon
[10] = system: PC-3 prostate
[11] = system: A549 NSCLC
[12] = system: NCI-H23 lung
[13] = system: CCRF-CEM leukemia
[14] = system: MDA-MB-435
[15] = system: MCF7 breast
[16] = system: HL-60(TB) leukemia
[17] = system: SF-539 CNS
[18] = system: HCT-15 colon
[19] = system: U251 CNS
[20] = system: IGROV1 ovarian
[21] = system: HOP-92 NSCLC
[22] = system: ACHN renal
[23] = system: MOLT-4 leukemia
[24] = system: BT-549 breast
[25] = system: UACC-62 melanoma
[26] = system: SN12C renal
[27] = system: OVCAR-5 ovarian
[28] = system: NCI-H460 lung
[29] = system: SK-MEL-5 melanoma
[30] = system: RPMI-8226 leukemia
[31] = system: OVCAR-3 ovarian
[32] = system: T-47D breast
[33] = system: SK-OV-3 ovarian
[34] = system: SK-MEL-2 melanoma
[35] = system: HOP-62 NSCLC
[36] = system: MALME-3M melanoma
[37] = system: HT29 colon
[38] = system: UO-31 renal
[39] = system: HS 578T breast
[40] = system: COLO 205 colon
[41] = system: SR leukemia
[42] = system: HCT-116 colon
[43] = system: UACC-257 melanoma
[44] = system: NCI-H226 lung
[45] = system: TK-10 renal
[46] = system: RXF 393 renal
[47] = system: DU-145 prostate
[48] = system: OVCAR-8 ovarian
[49] = system: OVCAR-4 ovarian
[50] = system: LOX IMVI melanoma
[51] = system: MDA-MB-231 breast
[52] = system: M14 melanoma
[53] = system: SF-268 CNS
[54] = system: KM12 colon
[55] = system: SF-295 CNS
[56] = system: NCI-H522 lung
[57] = system: NCI/ADR-RES ovarian

CC(C)OP(=O)(OC(C)C)c1ncc(-c2ccc(C(F)(F)F)cc2)c(NC2CCCCCC2)n1
GI50 [1]: > 10 µM | TGI [1]: > 10 µM | GI50 [2]: > 10 µM | TGI [2]: > 10 µM | GI50 [3]: > 10 µM | TGI [3]: > 10 µM | GI50 [4]: > 10 µM | TGI [4]: > 10 µM | GI50 [5]: > 10 µM | TGI [5]: > 10 µM | GI50 [6]: > 10 µM | TGI [6]: > 10 µM | GI50 [7]: > 10 µM | TGI [7]: > 10 µM | GI50 [8]: > 10 µM | TGI [8]: > 10 µM | GI50 [9]: > 10 µM | TGI [9]: > 10 µM | GI50 [10]: 9.51 µM | TGI [10]: > 10 µM | GI50 [11]: > 10 µM | TGI [11]: > 10 µM | GI50 [12]: > 10 µM | TGI [12]: > 10 µM | GI50 [13]: > 10 µM | TGI [13]: > 10 µM | GI50 [14]: > 10 µM | TGI [14]: > 10 µM | GI50 [15]: > 10 µM | TGI [15]: > 10 µM | GI50 [16]: > 10 µM | TGI [16]: > 10 µM | GI50 [17]: > 10 µM | TGI [17]: > 10 µM | GI50 [18]: > 10 µM | TGI [18]: > 10 µM | GI50 [19]: > 10 µM | TGI [19]: > 10 µM | GI50 [20]: > 10 µM | TGI [20]: > 10 µM | GI50 [21]: > 10 µM | TGI [21]: > 10 µM | GI50 [22]: > 10 µM | TGI [22]: > 10 µM | GI50 [23]: > 10 µM | TGI [23]: > 10 µM | GI50 [24]: > 10 µM | TGI [24]: > 10 µM | GI50 [25]: > 10 µM | TGI [25]: > 10 µM | GI50 [26]: > 10 µM | TGI [26]: > 10 µM | GI50 [27]: > 10 µM | TGI [27]: > 10 µM | GI50 [28]: > 10 µM | TGI [28]: > 10 µM | GI50 [29]: > 10 µM | TGI [29]: > 10 µM | GI50 [30]: > 10 µM | TGI [30]: > 10 µM | GI50 [31]: > 10 µM | TGI [31]: > 10 µM | GI50 [32]: > 10 µM | TGI [32]: > 10 µM | GI50 [33]: > 10 µM | TGI [33]: > 10 µM | GI50 [34]: > 10 µM | TGI [34]: > 10 µM | GI50 [35]: > 10 µM | TGI [35]: > 10 µM | GI50 [36]: > 10 µM | TGI [36]: > 10 µM | GI50 [37]: > 10 µM | TGI [37]: > 10 µM | GI50 [38]: > 10 µM | TGI [38]: > 10 µM | GI50 [39]: > 10 µM | TGI [39]: > 10 µM | GI50 [40]: > 10 µM | TGI [40]: > 10 µM | GI50 [41]: > 10 µM | TGI [41]: > 10 µM | GI50 [42]: > 10 µM | TGI [42]: > 10 µM | GI50 [43]: > 10 µM | TGI [43]: > 10 µM | GI50 [44]: > 10 µM | TGI [44]: > 10 µM | GI50 [45]: > 10 µM | TGI [45]: > 10 µM | GI50 [46]: > 10 µM | TGI [46]: > 10 µM | GI50 [47]: > 10 µM | TGI [47]: > 10 µM | GI50 [48]: > 10 µM | TGI [48]: > 10 µM | GI50 [49]: > 10 µM | TGI [49]: > 10 µM | GI50 [50]: > 10 µM | TGI [50]: > 10 µM | GI50 [51]: > 10 µM | TGI [51]: > 10 µM | GI50 [52]: > 10 µM | TGI [52]: > 10 µM | GI50 [53]: > 10 µM | TGI [53]: > 10 µM | GI50 [54]: > 10 µM | TGI [54]: > 10 µM | GI50 [55]: > 10 µM | TGI [55]: > 10 µM | GI50 [56]: > 10 µM | TGI [56]: > 10 µM | GI50 [57]: > 10 µM | TGI [57]: > 10 µM
